Test results from patent publication US10287337B2 (priority 2015, dated 2019).
“And” between values parts separate entries of the source, which are not always exact repeats. Equal values may be shown once. No end group written: not given here.

Columns and labels:
[1] = test system: spared nerve injury-induced neuropathic pain in rats; assay: Spared nerve injury (SNI)-induced neuropathic pain model, thermal and mechanical pain thresholds; type: in vivo, rat; conditions: rat, in vivo
Method: Of the three branches of the sciatic nerve the tibial and common peroneal nerves were cut and ligated leaving the sural nerve intact. Pre-surgery baselines (BL, 100%) of the thermal and mechanical pain thresholds of the ipsilateral hindpaws were measured using the Hargreaves thermal stimulator (6.0 A with a surface temperature of 30° C.; Hargreaves et al., 1988) and von Frey hair monofilaments (up-down method, Chaplan et al., 1994). […] All drug testing was conducted with this post-SNI period.
The rat recovered from anesthesia within a few minutes and the thermal and mechanical pain thresholds were determined at 0.5, 1, 2, 3, 4, 5 and 6 hour after the treatment using the methods described above.
Using the same test protocol in a different cohort of SNI rats, novel AFA-peptide 3 (0.1, 1 and 3 μM, each 50 μL) or the vehicle (50 μL) was injected into the ipsilateral hindpaws under a brief and light anesthesia condition (with 2.5% isoflurane). The thermal and mechanical pain thresholds were determined at 0.5, 1, 2, 3, 4, 5 and 6 hour after the treatment. […]

[2] = test system: STZ-induced diabetic pain in rats; assay: Streptozotocin (STZ)-induced diabetic neuropathic pain model; conditions: rat, in vivo
Method: Painful peripheral neuropathy is a common secondary complication of diabetes mellitus. Streptozotocin (STZ)-induced diabetic polyneuropathy causes more broad pain and has neurogenic inflammation component in rodents (Bishnoi et al., 2011). Prior to STZ administration, each rat's baseline of thermal and mechanical thresholds on their individual hindpaws were assessed using the Hargreaves thermal pain test, and von Frey mechanical pain test, respectively.
After removing the patches, hindpaw withdrawal latencies induced by continuous and noxious heat (Hargreaves) were assessed at 1 hour post-microneedle application.

[3] = test system: UVB radiation-induced inflammatory pain in rat cheek; type: in vivo; conditions: rat, in vivo
Excerpt: Ultraviolet B (UVB) radiation causes cutaneous inflammation in humans and animals. One important clinical consequence of UVB-induced inflammation is causing hyperalgesia. Changes in thermal sensitivities in the area of primary UVB irradiation are well documented both in humans and in the animal models (Zhang et al., 2009). […] This model provides an experimental model of post radiation pain and can mimic one type of burn pain. To determine the magnitude of anti-inflammatory pain effects for a given drug transdermally delivered by way of microneedle delivery, the depilated rat's cheeks were exposed to an inflammatory dosage of Ultraviolet B radiation (Zhang et al., 2009).
With the skin of a rat's cheek was stretched, the circular (8 mm in diameter) fiberglass applicator of the UV Curing Device (Dymax Bluewave 200) was applied to the center of the rat's cheek. To produce an appropriate inflammation, a total dose of 1200 mJ/cm^2 UVB was administered to one rat cheek for 25 seconds. The same procedure was performed on the rat's contralateral cheek. Upon completion of UVB irradiation, all rats were returned to their home cages and were assessed for thermal pain between 24-48 hours later. […] The rats were lightly anesthetized with urethane (800 mg/kg, IP) and heat-induced withdrawal latencies of the cheeks (an indicator of C fiber stimulation responses) were measured. […] A sham control group (n=6) were only completely depilated and cleansed with ethanol wipes but without UVB challenge.
After removing patches, cheek withdrawal latencies induced by continuous and noxious heat were assessed at different time points from the end of the 20 minute treatment period up to 3 hours post treatment.
The patches were applied on the rat cheek for 20 minutes. After removing the patches, cheek withdrawal latencies induced by continuous and noxious heat were assessed at different time points up to 3 hours as described above.
(§1) After removing the patches, cheek withdrawal latencies induced by continuous and noxious heat were assessed at different time points up to 3 hours.
Accordingly, anti-inflammatory effects were examined 48 hours post-UVB and after the application of the patch. Twelve rats were subjected to UVB radiation (1200 mJ/cm^2). […] The patch was placed over the inflamed area for a period of 20 minutes. […] Sham control group rats (n=6) were completely depilated and cleansed with ethanol wipes but without any other treatment. The rats were returned to their home cages, and assessed for thermal pain responses 48 hours later. As usual, cheek withdrawal latencies in response to continuous and noxious heat were recorded over a 3-hour time period (hours 49-51 post-UVB).
as §1
After removing the patches, cheek withdrawal latencies induced by continuous and noxious heat were assessed at different time points from 20 minutes post administration up to 3 hours.
Because UVB-irradiation may increase skin permeability, a topical formulation, but not limited to the sample shown here, was made.

[4] = test system: normal physiological pain sensation in normal rats; assay: Normal rats cheek withdrawal latency to noxious heat; conditions: rat, in vivo
Method: Ideal therapeutics of anti-inflammatory pain or anti-hypersensitivity (occurred in neuropathic pain) should not interfere with normal physiological pain sensations. […] After removing the patches, cheek withdrawal latencies (mean±SEM) were assessed using continuous and noxious heat at different time points within the initial 3 hours test period.

[5] = test system: electrocutaneous stimulation-induced facial pain in rats; assay: Electrocutaneous stimulation-induced facial inflammatory pain model; type: in vivo, rat; conditions: rat, in vivo
Method: In humans electrocutaneous stimulation elicited vasodilatation in the cheek (Vassend and Knardahl, 2005). […] Baseline facial thermal thresholds of rats (Sprague-Dawley, male, 260-300 g) were assessed on the rats' depilated left cheek and then each rat received 1 hour of electrocutaneous facial stimulation using WPI ISOSTIM™ A320 (World Precision Instruments, 0.4 mA intensity, 10 ms duration, Is inter-pulse interval). 24 hr after stimulation (Day 1), each rat's thermal pain threshold mediated by A-delta fiber and C fiber were separately measured using a thermal nociception lamp (variable voltage regulator model: No. SC-3M) to evoke A-delta and C nerve fiber-mediated cheek withdrawal. […] Thermal thresholds were measured once every 0.5 hour for the first 3 hours post-I.N. dosing, and then 4, 5, and 6 hour post-I.N. dosing. Voltage regulator set to 90V for A-delta fiber testing and 45V for C fiber testing. Cutoff set at 6 seconds and 20 seconds for A-delta fiber and C fiber testing, respectively.

[6] = test system: paw incision-induced postoperative pain in rats; assay: Paw incision-induced postoperative pain model, mechanical pain threshold; type: in vivo, rat; conditions: rat, in vivo
Excerpt: A clinically applicable incision model in rodents is a hind-paw deep incision that produces a robust mechanical and cold allodynia, and thermal hyperalgesia (Pogatzki et al., 2003; Xu and Brennan, 2010). Male rats (Sprague-Dawley, 250-260 g, Harlan) used (n=8/group) were anesthetized with 2.5% isoflurane and the skin of the dorsolateral hindpaw surface were prepped by first depilitating it (using Nair), followed by rinsing and application of povidone-iodine. Afterwards, a 5 mm longitudinal incision was made near the hairy/glabrous border though the skin and subcutaneous fascia of the left hindpaw as described by (Pogatzki et al., 2003; Xu and Brennan, 2010). After briefly elevating the underlying muscle with curved forceps the wound is closed with a single nylon (8-0) mattress stitch.
Pre-surgery (baseline) and 24 hours after the surgery, the mechanical allodynia of the incision hindpaws of the rats were assessed using von Frey monofilaments with an up/down procedure (Chaplan et al., 1994). […] Mechanical pain thresholds were measured at 0.5, 1, 2, 3, 4, 5 and 6 hours post-intradermal injection.

[7] = test system: UVB radiation-induced inflammatory pain in rat cheek; type: in vivo; conditions: rat, in vivo; remark: listed apart in the source
[8] = molecular target: T1, human calcitonin CGRP1 (CGRP1) membrane (Homo sapiens, UniProt O60894+Q16602); type: binding; conditions: for Hill slope: 0.24 nM [125I]-CGRP, Mean±SD; for binding affinity on CGRP receptors (in words): comparison between peptides
T1 construct: purchased Perkin Elmer (Waltham, Mass.)
Method: CGRP1 membrane was homogenized in the assay buffer (50 mM Tris-HCl pH 7.4, 5 mM MgCl2, 0.5% BSA, 0.05% Tween20). […] After 1 h of incubation, at room temperature, samples were filtered, using a Tomtec cell harvester, through glass fiber filters that had been presoaked in 0.05% polyethyleneimine and washed with the cold Tris buffer (50 mM Tris-HCl pH7.4). Filters were counted on a betaplate reader (Wallac).

T1 sequence (O60894 27-148): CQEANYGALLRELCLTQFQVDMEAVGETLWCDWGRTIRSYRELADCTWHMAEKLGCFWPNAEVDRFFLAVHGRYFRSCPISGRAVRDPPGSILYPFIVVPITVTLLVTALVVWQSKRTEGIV
T1 sequence (Q16602 23-461): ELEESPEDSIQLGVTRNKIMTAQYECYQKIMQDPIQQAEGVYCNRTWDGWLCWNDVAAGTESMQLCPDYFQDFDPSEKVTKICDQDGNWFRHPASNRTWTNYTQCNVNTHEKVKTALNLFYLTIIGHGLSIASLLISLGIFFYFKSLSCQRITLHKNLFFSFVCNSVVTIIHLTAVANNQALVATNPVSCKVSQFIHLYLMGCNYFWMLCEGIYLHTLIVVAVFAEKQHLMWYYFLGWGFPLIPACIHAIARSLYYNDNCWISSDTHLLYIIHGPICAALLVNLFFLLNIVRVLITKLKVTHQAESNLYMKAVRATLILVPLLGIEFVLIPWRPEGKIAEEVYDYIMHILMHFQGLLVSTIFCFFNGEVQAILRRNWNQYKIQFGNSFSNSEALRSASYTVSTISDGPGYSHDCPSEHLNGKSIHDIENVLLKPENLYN

## CSCC[C@H](NC(=O)CNC(=O)CNC(=O)[C@H](CO)NC(=O)[C@H](CCCNC(=N)N)NC(=O)[C@H](CO)NC(=O)[C@H](CC(C)C)NC(=O)[C@H](CC(C)C)NC(=O)CNC(=O)[C@H](C)NC(=O)[C@H](CC(C)C)NC(=O)[C@H](CCCNC(=N)N)NC(=O)[C@H](Cc1c[nH]cn1)NC(=O)[C@@H](NC(=O)[C@@H](N)C(C)C)[C@@H](C)O)C(=O)N[C@H](C(=O)N[C@@H](CCCCN)C(=O)N[C@@H](CO)C(=O)N[C@@H](CC(N)=O)C(=O)N[C@@H](Cc1ccccc1)C(=O)N[C@H](C(=O)N1CCC[C@H]1C(=O)N[C@H](C(=O)N[C@@H](CC(N)=O)C(=O)N[C@H](C(=O)NCC(=O)N[C@@H](CO)C(=O)N[C@@H](CCCCN)C(=O)N[C@@H](C)C(=O)N[C@@H](Cc1ccccc1)C(N)=O)C(C)C)[C@@H](C)O)C(C)C)C(C)C [CGRP 8-37]
[1]
  duration of anti-allodynic effect: up to 6 hours
  duration of thermal antihyperalgesic effect: up to 5 hours
  effect on thermal threshold (in words): full reversal to baseline thermal threshold values
  return toward baseline mechanical sensitivity: ~25%
  thermal and mechanical pain thresholds (in words): reduced SNI-induced neuropathic pain
  time of full reversal / peak antihyperalgesic effect after application: around 1 hour
  time of maximal anti-allodynic effect post-microneedle application: 3 h
[2]
  return to mechanical pain baseline values: 35%
  thermal threshold (in words): full return to their baseline thermal thresholds
[3]
  Average Reduced Latency for Inflammation, Mean: 9.9 s and 10.5 s and 11.2 s and 11.0 s and 12.2 s and 8.0 s and 9.1 s
  C-fiber-mediated thermal pain thresholds vs vehicle (in words): significant and substantial increase
  duration of action: 2 h
[4]
  Normal Rats Average Pain Response Latency, Mean: 10.3 s and 11.0 s and 11.2 s and 10.6 s and 10.5 s and 9.6 s and 10.1 s and 10.2 s
  analgesic effect on normal nociceptive pain (in words): did not produce any measurable analgesic effect
[5]
  A-delta fiber-mediated pain withdrawal latencies vs vehicle (in words): insignificant analgesic effects
  C-fiber-mediated pain withdrawal latencies vs vehicle (in words): even more substantial and significantly prolonged
  thermal pain thresholds in naïve, non-facial stimulation rats (in words): did not alter thermal pain thresholds
[6]
  mechanical pain thresholds vs vehicle (in words): significantly increased mechanical pain thresholds
  onset of analgesic effect post treatment: 1 h
[7]
  A-delta-fiber-mediated responses (in words): little effects

## NCC1(CC(=O)O)CCCCC1 [Gabapentin, gabapentin]
[1]
  duration of thermal antihyperalgesic effect: 3 h
  effect on thermal threshold (in words): significant antihyperalgesic effect
  time of full reversal / peak antihyperalgesic effect after application: 1 h

## CCN(CC)CC(=O)Nc1c(C)cccc1C [Lidocaine, lidocaine]
[1]
  thermal and mechanical pain thresholds (in words): produced positive control
[4]
  analgesic effect on normal nociceptive pain (in words): produced analgesic effect on normal nociceptive pain

## H-NFAPTNVGPFAF-NH2 [AFA- peptide 10, NH2-N-F-A-P-T-N-V-G-P-F-A-F-CONH2]
[8]
  Hill slope: 1.07 ± 0.01
  binding affinity on CGRP receptors (in words): higher affinities than conventional CGRP 27-37 and CGRP 8-37

## H-NFFPTNVGPFAF-NH2 [AFA- peptide 9, NH2-N-F-F-P-T-N-V-G-P-F-A-F-CONH2]
[8]
  Hill slope: 1.07 ± 0.05
  binding affinity on CGRP receptors (in words): higher affinities than conventional CGRP 27-37 and CGRP 8-37

## H-NFIPTNVGPFAF-NH2 [AFA- peptide 6, NH2-N-F-I-P-T-N-V-G-P-F-A-F-CONH2]
[8]
  Hill slope: 1.13 ± 0.13

## H-NFLPTNVGPFAF-NH2 [AFA- peptide 7, NH2-N-F-L-P-T-N-V-G-P-F-A-F-CONH2]
[8]
  Hill slope: 1.03 ± 0.15
  binding affinity on CGRP receptors (in words): higher affinities than conventional CGRP 27-37 and CGRP 8-37

## H-NLVPTNVGPFAF-NH2 [AFA- peptide 8, NH2-N-L-V-P-T-N-V-G-P-F-A-F-CONH2]
[8]
  Hill slope: 0.88 ± 0.18

## YVPTAVGPFAF-NH2 [CGRP 27-37]
[8]
  Hill slope: 1.62 ± 0.25
